Measurements taken from PubChem BioAssay AID1918949 (Molecular Pharmacology Branch, DTP, NCI, 2023).

System: K24384-001-R-PDC complex spheroid viability
Experiment: Anticancer human tumor K24384-001-R-PDC patient-derived pancreatic adenocarcinoma cell line growth inhibition
Details: for IC50: curve of first compound; for viability, T/C: stronger effect = lower value
Outline: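 Complex spheroids of tumor cells with HUVEC and human MSCs, exposed to iadademstat combined with other agents. Each agent tested in half-log steps from near clinical Cmax (else 10 microM top), DMSO ≤0.25%.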

[1] = second compound 0.1 µM, first compound 0.00316 µM
[2] = second compound 0.1 µM, first compound 0.01 µM
[3] = second compound 0.1 µM, first compound 0.0316 µM
[4] = second compound 0.1 µM, first compound 0.1 µM
[5] = second compound 0.316 µM, first compound 0.00316 µM
[6] = second compound 0.316 µM, first compound 0.01 µM
[7] = second compound 0.316 µM, first compound 0.0316 µM
[8] = second compound 0.316 µM, first compound 0.1 µM
[9] = second compound 1 µM, first compound 0.00316 µM
[10] = second compound 1 µM, first compound 0.01 µM
[11] = second compound 1 µM, first compound 0.0316 µM
[12] = second compound 1 µM, first compound 0.1 µM
[13] = second compound 3.16 µM, first compound 0.00316 µM
[14] = second compound 3.16 µM, first compound 0.01 µM
[15] = second compound 3.16 µM, first compound 0.0316 µM
[16] = second compound 3.16 µM, first compound 0.1 µM
[17] = second compound 10 µM, first compound 0.00316 µM
[18] = second compound 10 µM, first compound 0.01 µM
[19] = second compound 10 µM, first compound 0.0316 µM
[20] = second compound 10 µM, first compound 0.1 µM
[21] = second compound 0.1 µM, first compound 0.00949 µM
[22] = second compound 0.1 µM, first compound 0.03 µM
[23] = second compound 0.1 µM, first compound 0.0949 µM
[24] = second compound 0.1 µM, first compound 0.3 µM
[25] = second compound 0.1 µM, first compound 0.949 µM
[26] = second compound 0.1 µM, first compound 3 µM
[27] = second compound 0.316 µM, first compound 0.00949 µM
[28] = second compound 0.316 µM, first compound 0.03 µM
[29] = second compound 0.316 µM, first compound 0.0949 µM
[30] = second compound 0.316 µM, first compound 0.3 µM
[31] = second compound 0.316 µM, first compound 0.949 µM
[32] = second compound 0.316 µM, first compound 3 µM
[33] = second compound 1 µM, first compound 0.00949 µM
[34] = second compound 1 µM, first compound 0.03 µM
[35] = second compound 1 µM, first compound 0.0949 µM
[36] = second compound 1 µM, first compound 0.3 µM
[37] = second compound 1 µM, first compound 0.949 µM
[38] = second compound 1 µM, first compound 3 µM
[39] = second compound 3.16 µM, first compound 0.00949 µM
[40] = second compound 3.16 µM, first compound 0.03 µM
[41] = second compound 3.16 µM, first compound 0.0949 µM
[42] = second compound 3.16 µM, first compound 0.3 µM
[43] = second compound 3.16 µM, first compound 0.949 µM
[44] = second compound 3.16 µM, first compound 3 µM
[45] = second compound 10 µM, first compound 0.00949 µM
[46] = second compound 10 µM, first compound 0.03 µM
[47] = second compound 10 µM, first compound 0.0949 µM
[48] = second compound 10 µM, first compound 0.3 µM
[49] = second compound 10 µM, first compound 0.949 µM
[50] = second compound 10 µM, first compound 3 µM
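Further: spheroids exposed to agents for seven days before luminescence viability reading.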
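Wherever viability, T/C is given: 100% = DMSO vehicle control viability.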

For `COc1cc(Nc2ncc3c(n2)-c2ccc(Cl)cc2C(c2c(F)cccc2OC)=NC3)ccc1C(=O)O` + NC1CC1c1ccc(-c2cccc(O)c2)cc1, the IC50 (second compound 0.1 µM) was over 1 µM, the IC50 (second compound 0.316 µM) was over 1 µM and the IC50 (second compound 1 µM) was 0.0483 µM. The IC50 (second compound 3.16 µM) was 0.0341 µM, the IC50 (second compound 10 µM) was 0.0251 µM and the viability, T/C [1] was 74.2%. It also gave a viability, T/C [2] of 72.7%, a viability, T/C [3] of 62.4% and a viability, T/C [4] of 57.3%. The viability, T/C (second compound 0.1 µM, first compound 0.316 µM) was 55.8%, the viability, T/C (second compound 0.1 µM, first compound 1 µM) was 60.3% and the viability, T/C [5] was 68%. For the same molecule, the viability, T/C [6] was 63.1%, the viability, T/C [7] was 51.9% and the viability, T/C [8] was 47.8%. The viability, T/C (second compound 0.316 µM, first compound 0.316 µM) was 45.5%, the viability, T/C (second compound 0.316 µM, first compound 1 µM) was 58.9% and the viability, T/C [9] was 61.1%. The viability, T/C [10] was 62.5%, the viability, T/C [11] was 52.8% and the viability, T/C [12] was 43.7%. The viability, T/C (second compound 1 µM, first compound 0.316 µM) was 43.2%, the viability, T/C (second compound 1 µM, first compound 1 µM) was 48.9% and the viability, T/C [13] was 56.6%. For the same molecule, the viability, T/C [14] was 64%, the viability, T/C [15] was 50.4% and the viability, T/C [16] was 39.6%. For the same molecule, the viability, T/C (second compound 3.16 µM, first compound 0.316 µM) was 42.5%, the viability, T/C (second compound 3.16 µM, first compound 1 µM) was 49.8% and the viability, T/C [17] was 65.4%. It also gave a viability, T/C [18] of 62.4%, a viability, T/C [19] of 45.7% and a viability, T/C [20] of 44.6%. The viability, T/C (second compound 10 µM, first compound 0.316 µM) was 42.4% and the viability, T/C (second compound 10 µM, first compound 1 µM) was 54.7%.
For `Cn1ncnc1C1c2n[nH]c(=O)c3cc(F)cc(c23)NC1c1ccc(F)cc1` (stereo not given) + NC1CC1c1ccc(-c2cccc(O)c2)cc1, the IC50 (second compound 0.1 µM) was over 0.1 µM, the IC50 (second compound 0.316 µM) was over 0.1 µM and the IC50 (second compound 1 µM) was over 0.1 µM. For the same molecule, the IC50 (second compound 3.16 µM) was over 0.1 µM, the IC50 (second compound 10 µM) was over 0.1 µM and the viability, T/C (second compound 0.1 µM, first compound 0.000316 µM) was 92.8%. The viability, T/C (second compound 0.1 µM, first compound 0.001 µM) was 121%, the viability, T/C [1] was 104% and the viability, T/C [2] was 88.4%. For the same molecule, the viability, T/C [3] was 77.6%, the viability, T/C [4] was 77.8% and the viability, T/C (second compound 0.316 µM, first compound 0.000316 µM) was 101%. The viability, T/C (second compound 0.316 µM, first compound 0.001 µM) was 105%, the viability, T/C [5] was 84.4% and the viability, T/C [6] was 85.8%. The viability, T/C [7] was 93.8%, the viability, T/C [8] was 73.3% and the viability, T/C (second compound 1 µM, first compound 0.000316 µM) was 108%. For the same molecule, the viability, T/C (second compound 1 µM, first compound 0.001 µM) was 96.7%, the viability, T/C [9] was 84.5% and the viability, T/C [10] was 94.2%. The viability, T/C [11] was 78.3%, the viability, T/C [12] was 102% and the viability, T/C (second compound 3.16 µM, first compound 0.000316 µM) was 91.7%. The viability, T/C (second compound 3.16 µM, first compound 0.001 µM) was 96.9%, the viability, T/C [13] was 93.6% and the viability, T/C [14] was 101%. For the same molecule, the viability, T/C [15] was 102%, the viability, T/C [16] was 75.8% and the viability, T/C (second compound 10 µM, first compound 0.000316 µM) was 108%. The viability, T/C (second compound 10 µM, first compound 0.001 µM) was 111%, the viability, T/C [17] was 126% and the viability, T/C [18] was 94.9%. It also gave a viability, T/C [19] of 96% and a viability, T/C [20] of 86.5%.
`NS(=O)(=O)OCC1CC(n2ccc3c(NC4CCc5ccccc54)ncnc32)CC1O` (stereo not given) + NC1CC1c1ccc(-c2cccc(O)c2)cc1 gave an IC50 (second compound 0.1 µM) of 0.439 µM, an IC50 (second compound 0.316 µM) of 0.57 µM and an IC50 (second compound 1 µM) of 0.479 µM. The IC50 (second compound 3.16 µM) was 0.42 µM, the IC50 (second compound 10 µM) was 0.512 µM and the viability, T/C [21] was 124%. It also gave a viability, T/C [22] of 155%, a viability, T/C [23] of 154% and a viability, T/C [24] of 58.9%. The viability, T/C [25] was 36.9%, the viability, T/C [26] was 27% and the viability, T/C [27] was 128%. The viability, T/C [28] was 156%, the viability, T/C [29] was 135% and the viability, T/C [30] was 71.1%. For the same molecule, the viability, T/C [31] was 37.5%, the viability, T/C [32] was 25.4% and the viability, T/C [33] was 114%. For the same molecule, the viability, T/C [34] was 155%, the viability, T/C [35] was 146% and the viability, T/C [36] was 62.5%. For the same molecule, the viability, T/C [37] was 36.6%, the viability, T/C [38] was 26.9% and the viability, T/C [39] was 110%. For the same molecule, the viability, T/C [40] was 148%, the viability, T/C [41] was 138% and the viability, T/C [42] was 55.4%. The viability, T/C [43] was 43.1%, the viability, T/C [44] was 30.8% and the viability, T/C [45] was 155%. For the same molecule, the viability, T/C [46] was 151%, the viability, T/C [47] was 114% and the viability, T/C [48] was 61.1%. The viability, T/C [49] was 40.8% and the viability, T/C [50] was 23%.
`O=C(C=Cc1cccc(S(=O)(=O)Nc2ccccc2)c1)NO` + NC1CC1c1ccc(-c2cccc(O)c2)cc1 was tested, and the IC50 (second compound 0.1 µM) was 0.24 µM, the IC50 (second compound 0.316 µM) was 0.233 µM and the IC50 (second compound 1 µM) was 0.229 µM. It also gave an IC50 (second compound 3.16 µM) of 0.235 µM, an IC50 (second compound 10 µM) of 0.185 µM and a viability, T/C [21] of 105%. It also gave a viability, T/C [22] of 111%, a viability, T/C [23] of 95.5% and a viability, T/C [24] of 39.3%. It also gave a viability, T/C [25] of 3.97%, a viability, T/C [26] of 2.49% and a viability, T/C [27] of 90%. The viability, T/C [28] was 108%, the viability, T/C [29] was 117% and the viability, T/C [30] was 34.4%. The viability, T/C [31] was 4.35%, the viability, T/C [32] was 1.43% and the viability, T/C [33] was 80.9%. For the same molecule, the viability, T/C [34] was 113%, the viability, T/C [35] was 98.1% and the viability, T/C [36] was 35.6%. The viability, T/C [37] was 5.51%, the viability, T/C [38] was 0.1% and the viability, T/C [39] was 85%. The viability, T/C [40] was 124%, the viability, T/C [41] was 103% and the viability, T/C [42] was 35.5%. It also gave a viability, T/C [43] of 4.17%, a viability, T/C [44] of 0.1% and a viability, T/C [45] of 81.1%. For the same molecule, the viability, T/C [46] was 114%, the viability, T/C [47] was 70.7% and the viability, T/C [48] was 32.7%. For the same molecule, the viability, T/C [49] was 5.8% and the viability, T/C [50] was 0.18%.
